In US20020025298A1, “Use of texaphyrin in ocular diagnosis and therapy” (Pharmacyclics, Inc., priority 1996, published 2002):
Several values for one entry are separate records, joined by “and”; a condition that tells them apart may be missing. Equal entries are not always repeated. Where two headings read alike, the source gives them in different places. Blank lines part the entries; values can stand above or below the compound they belong to.

Legend:
normal NZW rabbits = test: Fluorescence angiography in normal NZW rabbits with fundoscopy and H&E histology (safety); type: in vivo, rabbit; settings: i.v. 1-10 μmol/kg, fluorescein and ICG angiography and H&E histology
Experimental: Fluorescence angiography comparing LuT2BET, fluorescein, and ICG was performed on normal NZW rabbits. Normal rabbits (n=4) received an intravenous injection of LuT2BET from 1-10 μmol/kg after intramuscular sedation and pupillary dilatation. Extensive fundoscopy was performed immediately and up to 2 hours post texaphyrin, fluorescein, or ICG administration. […] In further studies, vascular lesions including neovascularization was induced in albino rabbits (NZW) using photocoagulation. PDT using LuT2BET was carried out on the induced lesions. […] Therefore, selective accumulation of Lu(III)T2BET in areas of neovascularization should facilitate diagnosis and photodynamic therapy of age-related macular degeneration and other disorders related to abnormal vasculature.
Dyes. Lutetium texaphyrin, Lu(III)T2BET, was dissolved in 5% mannitol at a concentration of 2 mM. Indocyanine-green (ICG, Cardio-Gree^n®, Becton Dickinson and Company, Cockeysville, Md.) and fluorescein (Alcon Laboratories, Fort Worth, Tex.) fluorescent angiograms were performed at concentrations of 0.31 mg/kg and 7.5 mg/kg, respectively. […]
Photography. Fundus photography and fluorescence angiograms were performed with the TOPCON™50VT camera coupled to the Ophthalmic Imaging System (Ophthalmic Imaging System Inc., Sacramento, Calif.). […] ICG was excited at 790-805 nm and fluorescence detected at 835 nm. […]

[1] = test system: induced vascular lesions of the eye; test: Photodynamic therapy of induced vascular lesions of the eye; type: in vivo; settings: rabbit
Experimental: Induction of Neovascularization. Photocoagulation bums were introduced in the right macular retina of seven rabbits with an argon dye laser (Coherent Inc., Palo Alto, Calif.). On average, five lesions were induced with 577 nm light using a spot size of 50 μm using enough power (typically 450 mW) to cause bleeding into the retina. The eyes were photographed immediately after photocoagulation. Fluorescein and ICG angiograms were performed 11-15 days after photocoagulation. […] Four control animals, having no induced lesions, were given fluorescence angiograms with the respective dyes.
PDT Protocol. Animals received Lu(III)T2BET, 30 minutes post injection laser light at 488 nm, spot size of 1000 μm, was directed to each lesion via a slitlamp system. Fluorescein angiography was performed throughout the procedure, from prior to until after PDT.
Thirty minutes after injection with LuT2BET, laser light at 488 nm, spot size of 1000 μm, was directed to the lesion via a slitlamp lens system.

[2] = Plasma analysis: plasma concentration by fluorescence; type: in vivo; settings: rabbit, i.v. 1 μmol/kg
Experimental: (§1) Plasma Analysis. Rabbits were injected via the ear vein with 1 μmol Lu(III)T2BET/kg and blood was collected at 15 min, 30 min, 3 hr, and 5 hr post administration. EDTA was used as the anticoagulant. Plasma samples (25 μl) were mixed with 10 mM Triton X100 (3 ml) and analyzed by fluorescence. Fluorescence spectra were acquired with a SLM 48000S instrument, excitation was between 450-480 nm and emission monitored from 700-800 nm. In vivo binding of Lu(III)T2BET to rabbit plasma proteins and lipoproteins was assessed using KBr density-gradient ultracentrifugation to fractionate the protein/lipoprotein mixture, followed by fluorescence spectroscopy to determine the relative distribution of Lu(III)T2BET among the low-density lipoproteins (LDL), high-density lipoproteins (HDL), and heavy proteins.

[3] = test system: rabbit plasma proteins and lipoproteins; test: In vivo binding to plasma proteins and lipoproteins, KBr density-gradient ultracentrifugation; settings: for binding to plasma elements (in words): rabbit, in vivo
Experimental: as §1

[4] = Absorption spectrum and fluorescence profile; type: physicochemical
[5] = cited from earlier work
[6] = cited from earlier work; remark: listed apart in the source

concentration in plasma ([2]; 15 min): 2680 ng/mL
concentration in plasma ([2]; 30 min): 1790 ng/mL
concentration in plasma ([2]; 3 hr): 180 ng/mL
concentration in plasma ([2]; 5 h): 120 ng/mL
relative in vivo binding, HDL fraction ([3]; rabbit plasma): 49%
relative in vivo binding, LDL portion ([3]; rabbit plasma): 10.5%
relative in vivo binding, heavy proteins ([3]; rabbit plasma): 40.5%
absorption bands [4]: 470 nm and 732 nm
fluorescence emission profile centre [4]: 750 nm
extinction coefficient ε ([4]; at 732 nm): 32,000 M^−1 cm^−1
fluorescence emission FWHM ([4]; emission centered at 750 nm): 60 nm
Compound: CC(=O)[O-].CC(=O)[O-].CCc1c(CC)c2cc3nc(cnc4cc(OCCOCCOCCOC)c(OCCOCCOCCOC)cc4ncc4nc(cc1[n-]2)C(CCCO)=C4C)C(C)=C3CCCO.O.[Lu+3] [LuT2BET]
normal tissue damage after fluorescence angiography (normal NZW rabbits): no evidence of normal tissue damage
damage in control normal choroid or retinal tissue after PDT [1]: no damage was observed
damage to surrounding vessels or tissues after PDT [1]: No damage
closure of induced lesions after PDT ([1]; 488 nm light 30 min after injection, spot size 1000 μm): Closure of induced lesions was observed
fluorescein leakage outside the treated vessel after PDT ([1]; fluorescein angiogram after PDT): limited fluorescence leakage outside of the PDT-treated vessel
binding to plasma elements (in words) [3]: predominantly bound to lipoproteins and to some extent albumin

binding to plasma elements (in words) [3]: not bound to plasma elements
Compound: O=C1OC2(c3ccc(O)cc3Oc3cc(O)ccc32)c2ccccc21 [fluorescein, reference compound]

binding to plasma elements (in words) [3]: binding mainly to albumin
Compound: CC1(C)C(/C=C/C=C/C=C/C=C2\N(CCCCS(=O)(=O)O)c3ccc4ccccc4c3C2(C)C)=[N+](CCCCS(=O)(=O)[O-])c2ccc3ccccc3c21 [ICG, indocyanine green, reference compound]

The remaining lines, values behind:

Compound: CCOC(=O)C1=Cc2c3nc(cc4nc(cc5[n-]c(cc6[n-]c2c(C)c6CC)c(C)c5CC)C(C)=C4CC)[C@@H](C)[C@]13CC.[Cl-].[Cl-].[Sn] (racemic) [SnET2, Tin etiopurpurin]
solubility in aqueous solutions [5]: insoluble

Compound: Benzoporphyrin derivative [BPD]
duration of cutaneous photosensitivity ([6]; in vivo): a few days
solubility in aqueous solutions [5]: insoluble

Compound: porfimer sodium
duration of cutaneous photosensitivity ([6]; light of 630 nm): up to 6 weeks
